Laboratory results from patent US5705190A, “Controlled release formulation for poorly soluble basic drugs” (Abbott Laboratories, priority 1995, dated 1998).
Read-outs that look alike come from different tables or passages of the source.

Legend:
[1] = cited from earlier work
[2] = in vivo

Molecule | water solubility (1 part of drug in the number of parts of water) ([1]; water) | further results
CC[C@H]1OC(=O)[C@H](C)[C@@H](O[C@H]2C[C@@](C)(OC)[C@@H](O)[C@H](C)O2)[C@H](C)[C@@H](O[C@@H]2O[C@H](C)C[C@H](N(C)C)[C@H]2O)[C@](C)(OC)C[C@@H](C)C(=O)[C@H](C)[C@@H](O)[C@]1(C)O [clarithromycin] |  | water solubility (1 part of drug in the number of parts of water) ([1]; 1 part drug in x parts water, a higher number is a lower solubility): ~1,000 parts of water; solubility in the stomach ([1]; pH 1.2): very soluble; solubility in the upper region of the small intestine ([1]; pH 5.0): fairly soluble; solubility in the lower intestine ([1]; pH 6 to 8): solubility decreases
CC[C@H]1OC(=O)[C@H](C)[C@@H](O[C@H]2C[C@@](C)(OC)[C@@H](O)[C@H](C)O2)[C@H](C)[C@@H](O[C@@H]2O[C@H](C)C[C@H](N(C)C)[C@H]2O)[C@](C)(O)C[C@@H](C)C(=O)[C@H](C)[C@@H](O)[C@]1(C)O [erythromycin] | 1,000 parts of water | reproducibly bioavailable controlled release formulations [2]: not possible
CC1Cc2ccccc2N1NC(=O)c1ccc(Cl)c(S(N)(=O)=O)c1 (stereo not drawn) [indapamide] | more than 10,000 parts of water | 
CO[C@@H]1[C@@H](O[C@@H]2O[C@H](C)[C@@H](O[C@H]3C[C@@](C)(O)[C@@H](OC(=O)CC(C)C)[C@H](C)O3)[C@H](N(C)C)[C@H]2O)[C@@H](CC=O)C[C@@H](C)[C@@H](O)/C=C/C=C/C[C@@H](C)OC(=O)C[C@H]1OC(C)=O [josamycin] | 1,000-10,000 parts of water | 
Cc1ncc([N+](=O)[O-])n1CCO [metronidazole] | 100-1,000 parts of water | 
CCC(=O)O[C@@H]1CC(=O)O[C@H](C)C/C=C/C=C/[C@H](O)[C@H](C)C[C@H](CC=O)[C@H](O[C@@H]2O[C@H](C)[C@@H](O[C@H]3C[C@@](C)(O)[C@@H](OC(=O)CC)[C@H](C)O3)[C@H](N(C)C)[C@H]2O)[C@H]1OC [midecamycin] |  | water solubility in words ([1]; water): very slightly soluble in water
CC[C@H]1OC(=O)C[C@@H](O)[C@H](C)[C@@H](O[C@@H]2O[C@H](C)[C@@H](O[C@H]3C[C@@](C)(O)[C@@H](O)[C@H](C)O3)[C@H](N(C)C)[C@H]2O)[C@@H](CC=O)C[C@@H](C)C(=O)/C=C/C(C)=C/[C@@H]1CO[C@@H]1O[C@H](C)[C@@H](O)[C@@H](OC)[C@H]1OC [tylosin] | 100-1,000 parts of water | 
kitasamycin | 1,000-10,000 parts of water | 
